{"source": "PubChem BioAssay AID214", "about": "(DTP/NCI, 2004)", "test_system": "B6C3F1 mice, colon carcinoma 38 s.c., T/C", "assay": "NCI In Vivo Anticancer Drug Screen. Data for tumor model Colon Carcinoma 38 (subcutaneous) in B6C3F1 mice", "conditions": "endpoint: median tumor weight (est.), schedule: Q07DX002 (ip), higher = larger tumour", "experimental": "The antitumor activity of compounds was measured in mice bearing transplantable tumors. Survival or tumor size were measured and the results are expressed as the measurement made in the treated group (T) divided by the measurement made in the vehicle treated control group (C). The tumor model used in this assay is Colon Carcinoma 38 (subcutaneous) in B6C3F1 mice", "key": {"[1]": {"conditions": "dose: 100.0 mg/kg/injection, vehicle: saline with Tween-80"}, "[2]": {"conditions": "dose: 200.0 mg/kg/injection, vehicle: saline with Tween-80"}, "[3]": {"conditions": "dose: 400.0 mg/kg/injection, vehicle: saline with Tween-80"}, "[4]": {"conditions": "dose: 100.0 mg/kg/injection, vehicle: Klucel (hydroxypropylcellulose) (HPC)"}, "[5]": {"conditions": "dose: 200.0 mg/kg/injection, vehicle: Klucel (hydroxypropylcellulose) (HPC)"}, "[6]": {"conditions": "dose: 400.0 mg/kg/injection, vehicle: Klucel (hydroxypropylcellulose) (HPC)"}, "[7]": {"conditions": "dose: 50.0 mg/kg/injection, vehicle: saline with Tween-80"}, "[8]": {"conditions": "dose: 300.0 mg/kg/injection, vehicle: saline"}, "[9]": {"conditions": "dose: 600.0 mg/kg/injection, vehicle: saline"}, "[10]": {"conditions": "dose: 1200.0 mg/kg/injection, vehicle: saline"}}, "note": "Where “and” joins values, the source holds several entries; their conditions need not be identical. Equal entries are not always repeated. Results filed as inconclusive are left out.", "data": [{"smiles": "COc1ccc(C(=O)C(CN(C)C)CN(C)C)cc1", "values": [{"measurement": "T/C", "setting": "dose: 3.12 mg/kg/injection, vehicle: saline", "result": "109 % of control"}, {"measurement": "T/C", "setting": "dose: 6.25 mg/kg/injection, vehicle: saline", "result": "113 % of control"}, {"measurement": "T/C", "setting": "dose: 12.5 mg/kg/injection, vehicle: saline", "result": "115 % of control"}, {"measurement": "T/C", "setting": "dose: 25.0 mg/kg/injection, vehicle: saline", "result": "102 % of control"}]}, {"smiles": "O=C(O)C1CC(O)CN1", "note": "(stereo not given)", "values": [{"measurement": "T/C", "setting": "dose: 50.0 mg/kg/injection, vehicle: saline", "result": "93 % of control"}, {"measurement": "T/C", "setting": "dose: 100.0 mg/kg/injection, vehicle: saline", "result": "87 % of control"}, {"measurement": "T/C", "setting": "dose: 400.0 mg/kg/injection, vehicle: saline", "result": "79 % of control"}]}, {"smiles": "S=C(NCNC(=S)c1ccncc1)c1ccncc1", "values": [{"measurement": "T/C", "setting": "[1]", "result": "70 % of control"}, {"measurement": "T/C", "setting": "[2]", "result": "104 % of control"}, {"measurement": "T/C", "setting": "[3]", "result": "70 % of control"}, {"measurement": "T/C", "setting": "dose: 800.0 mg/kg/injection, vehicle: saline with Tween-80", "result": "66 % of control"}]}, {"smiles": "CC(CN1CC(=O)NC(=O)C1)N1CC(=O)NC(=O)C1", "note": "(stereo not given)", "values": [{"measurement": "T/C", "setting": "[4]", "result": "82 % of control"}, {"measurement": "T/C", "setting": "[5]", "result": "40 % of control"}, {"measurement": "T/C", "setting": "[6]", "result": "2 % of control"}, {"measurement": "T/C", "setting": "dose: 800.0 mg/kg/injection, vehicle: Klucel (hydroxypropylcellulose) (HPC)", "result": "1 % of control"}]}, {"smiles": "CCC(NC(N)=O)C(CC)NC(N)=O", "note": "(stereo not given)", "values": [{"measurement": "T/C", "setting": "dose: 25.0 mg/kg/injection, vehicle: saline with Tween-80", "result": "83 % of control"}, {"measurement": "T/C", "setting": "[7]", "result": "88 % of control"}, {"measurement": "T/C", "setting": "[1]", "result": "81 % of control"}]}, {"smiles": "Nc1ccc2ccc(NS(=O)(=O)N3CCCCC3)cc2c1", "values": [{"measurement": "T/C", "setting": "[7]", "result": "108 % of control"}, {"measurement": "T/C", "setting": "[2]", "result": "39 % of control"}, {"measurement": "T/C", "setting": "[3]", "result": "15 % of control"}]}, {"smiles": "O=CC(O)C(O)C(O)C(O)CO", "note": "(stereo not given)", "values": [{"measurement": "T/C", "setting": "dose: 75.0 mg/kg/injection, vehicle: saline", "result": "106 % of control"}, {"measurement": "T/C", "setting": "dose: 150.0 mg/kg/injection, vehicle: saline", "result": "79 % of control"}, {"measurement": "T/C", "setting": "[8]", "result": "66 % of control"}, {"measurement": "T/C", "setting": "[9]", "result": "94 % of control"}, {"measurement": "T/C", "setting": "[10]", "result": "110 % of control"}]}, {"smiles": "CCN(CC)c1ccc2[nH]c3c(C(N)=O)cc(=O)c(=O)c=3oc2c1", "values": [{"measurement": "T/C", "setting": "[1]", "result": "93 % of control"}, {"measurement": "T/C", "setting": "[2]", "result": "99 % of control"}, {"measurement": "T/C", "setting": "[3]", "result": "93 % of control"}]}, {"smiles": "COc1ccc(S(=O)(=O)N=N/C=C2\\C=CC=CN2O)cc1OC", "values": [{"measurement": "T/C", "setting": "[7]", "result": "175 % of control"}, {"measurement": "T/C", "setting": "[1]", "result": "91 % of control"}, {"measurement": "T/C", "setting": "[2]", "result": "166 % of control"}]}, {"smiles": "NC(CCl)=NCC12CC3CC(CC(C3)C1)C2", "values": [{"measurement": "T/C", "setting": "dose: 12.5 mg/kg/injection, vehicle: Klucel (hydroxypropylcellulose) (HPC)", "result": "110 % of control"}, {"measurement": "T/C", "setting": "[4]", "result": "94 % of control and 108 % of control"}]}, {"smiles": "CN(C)CCCNc1c2ccccc2nc2cccc([N+](=O)[O-])c12", "values": [{"measurement": "T/C", "setting": "dose: 0.03 mg/kg/injection, vehicle: saline", "result": "104 % of control"}, {"measurement": "T/C", "setting": "dose: 0.06 mg/kg/injection, vehicle: saline", "result": "79 % of control and 221 % of control"}]}, {"smiles": "Nc1ccn(C2OC(CO)C(O)C2O)c(=O)n1", "note": "(stereo not given)", "values": [{"measurement": "T/C", "setting": "[8]", "result": "70 % of control"}, {"measurement": "T/C", "setting": "[9]", "result": "90 % of control"}, {"measurement": "T/C", "setting": "[10]", "result": "56 % of control"}, {"measurement": "T/C", "setting": "dose: 2400.0 mg/kg/injection, vehicle: saline", "result": "64 % of control"}]}, {"smiles": "CC[C@@H](C)[C@@H]1NC(=O)C(NC(=O)C(CC(C)C)N(C)C(=O)C2CCCN2C(=O)C(C)O)C(C)OC(=O)C(Cc2ccc(OC)cc2)N(C)C(=O)C2CCCN2C(=O)C(CC(C)C)NC(=O)C(C)C(=O)C(C(C)C)OC(=O)C[C@H]1O", "note": "(stereo not given in full)", "values": [{"measurement": "T/C", "setting": "dose: 600.0 micrograms/kg/injection, vehicle: distilled water + alcohol", "result": "118 % of control"}]}, {"smiles": "CCN(CC)CCOCCO", "values": [{"measurement": "T/C", "setting": "dose: 50.0 mg/kg/injection, vehicle: suspension in saline", "result": "150 % of control"}, {"measurement": "T/C", "setting": "dose: 100.0 mg/kg/injection, vehicle: suspension in saline", "result": "160 % of control"}]}, {"smiles": "CCN(CC)CCOC(=O)Cc1cc(OC)cc2c(=O)cc(-c3ccccc3)oc12", "values": [{"measurement": "T/C", "setting": "[5]", "result": "37 % of control"}, {"measurement": "T/C", "setting": "[6]", "result": "73 % of control"}]}]}
